# According to US20230002408A1, “HETEROARYLDIHYDROPYRIMIDINE DERIVATIVES AND METHODS OF TREATING HEPATITIS B INFECTIONS” (JANSSEN PHARMACEUTICA NV, priority 2019, published 2023):
# Key:
# [1] = tested on: HepG2.2.15 cells; experiment: Cytotoxicity determination in HepG2.2.15 cells (CCK-8 cell viability); type: cell-based; conditions: 6 days treatment, CCK-8, highest concentration 100 uM
# Description: (§1) HepG2.2.15 (the HepG2.2.15 cell line can be produced by transfection of the HepG2 cell line as described in Sells, Chen, and Acs 1987 (Proc. Natl. Acad. Sci. USA 84: 1005-1009), and the HepG2 cell line is available from ATCC® under number HB-8065™).
# (§2) HepG2.2.15 cells were plated into 96-well plate in 2% FBS culture medium at the density of 40,000 cells/well and 5,000 cells/well for HBV inhibitory activity and cytotoxicity determination, respectively. After incubation at 37° C., 5% CO2 overnight, cells were treated with medium containing compounds for 6 days with medium and compounds refreshed after 3 days of treatment. Each compound was tested in a 1:3 serial dilutions at 8 different concentrations in triplicate. The highest concentration of the compounds was 10 uM or 1 uM for anti-HBV activity assay and 100 uM for cytotoxicity determination. Cell viability was determined by CCK-8 assay. After 6 days of compounds treatment, 20 μl CCK-8 reagents were added to each well of cytotoxicity assay plates. Cell plates were incubated at 37° C., 5% CO2 for 2.5 h. The absorbance at 450 nm wavelength and the absorbance at 630 nm wavelength as reference was measured.
# (§3) EC50 and CC50 values are calculated by the GRAPHPAD PRISM software.
# [2] = tested on: HBV; experiment: Anti-viral assay in HepG2.2.15 cells: HBV DNA in culture medium by qPCR; type: cell-based; conditions: HepG2.2.15 cells, 6 days treatment, HBV DNA in culture medium by real-time PCR; read-out: EC50
# Description: as §1, §2
# The change of HBV DNA level induced by the compounds was assessed by quantitative real-time polymerase chain reaction (qPCR). Briefly, the HBV DNA in the culture medium was extracted using QlAamp 96 DNA Blood Kit according to the manual and then quantified by real-time PCR assay using the primers and probe in the table 1 below.
# as §3
Structure (SMILES),CC50 [1] [nM],EC50 [2] [nM]
"COC(=O)C1=C(CN2CCO[C@H]3CN(CC(C)(C)C(=O)O)C(=O)[C@H]32)NC(c2nccs2)=N[C@H]1c1cccc(F)c1Cl (single isomer, unassigned) [Compound I-24A, 3-((4aS*,7aS*)-4-4(R*)-6-(2-chloro-3-fluorophenyl)-5-(methoxycarbonyl)-2-(thiazol-2-yl)-3,6-dihydropyrimidin-4-yl)methyl)-5-oxohexahydropyrrolo[3,4-b][1,4]oxazin-6(2H)-yl)-2,2-dimethylpropanoic acid]",> 100000,14
"CCOC(=O)C1=C(CN2CCO[C@H]3CN(CC(C)(C)C(=O)O)C(=O)[C@H]32)NC(c2nccs2)=N[C@H]1c1ccc(F)cc1Cl (relative stereo) [Compound I-20A, 3-((4aS*,7aS*)-4-4(R*)-6-(2-chloro-4-fluorophenyl)-5-(ethoxycarbonyl)-2-(thiazol-2-yl)-3,6-dihydropyrimidin-4-yl)methyl)-5-oxohexahydropyrrolo[3,4-b][1,4]oxazin-6(2H)-yl)-2,2-dimethylpropanoic acid]",55000,1
